Results taken from paper PMC9230201, “Sustained Consumption of a Decaffeinated Green Coffee Nutraceutical Has Limited Effects on Phenolic Metabolism and Bioavailability in Overweight/Obese Subjects” (Nutrients, 2022).

How the values were obtained:
[1] = Urinary excretion of phenolic metabolites after intake of the GCPE nutraceutical; conditions: for Cumulative urinary excretion, Total 0–24 h: urine, mean ± SEM, n = 9
Experimental: Participants attended the Human Nutrition Unit (HNU) at the Institute of Food Science, Technology and Nutrition (ICTAN-CSIC) on two consecutive days at the beginning of the intervention (week 0) and also on two consecutive days at the end of the study, after consuming daily two doses of the GCPE nutraceutical, providing 600 mg/d phenols, during two months (week 8). […] A licensed health care professional placed an intravenous catheter in the subjects′ nondominant arm and collected a fasting blood sample (baseline, 0 h). Then, subjects drank the soluble GCPE nutraceutical dissolved in 200 mL of water. […] On the sampling days, volunteers remained at the HNU, where a (poly)phenol-free diet was provided. Half an hour after consuming the nutraceutical, volunteers ate a breakfast consisting of ham, cheese, white bread, and a yogurt. Lunch (paella, bread, and yogurt) and an afternoon snack (muffin and yogurt) were eaten 5 and 9 h, respectively, after consuming the nutraceutical. Water and isotonic beverages were freely available. […] The same protocol was followed during visits at the end of the 8-week intervention. On each occasion, two days before each visit to the HNU, subjects consumed a low (poly)phenol diet free of foods containing hydroxycinnamates such as coffee, herbal teas, red wine, artichokes, whole grain cereals, vegetables, fruits and fruit juices, and dried fruits. Only banana, watermelon, cantaloupes, and potatoes were allowed.
(§1) Blood samples were immediately centrifuged (10 min, 3000 rpm, 4 °C) to obtain plasma. […] All biological samples were stored at −80 °C until analysis.
To extract plasma metabolites, 10 µL of 50% (v/v) aqueous formic acid, and 900 µL cold acetonitrile containing 50 µL of 10% (w/v) ascorbic acid were added to 400 µL defrosted plasma. Samples were vortexed and centrifuged (14,000 rpm, 10 min, 4 °C), repeating the extraction and combining the two supernatants, which were reduced to dryness under nitrogen [13]. Dried samples were resuspended in 150 µL of 0.1% aqueous formic acid (containing 10% acetonitrile acidified with 0.1% formic acid), centrifuged (15 min, 14,000 rpm, 4 °C), and the supernatant collected. Urine samples were diluted 1:1 with Milli-Q water and centrifuged (14,000 rpm, 20 min, 4 °C) prior to analysis. Phosphate-buffered saline (3 mL) was added to a representative 300 mg sample of thawed feces, homogenized in an ultrasound bath during 10 min, centrifuged (14,000 rpm, 20 min, 4 °C), and the supernatants collected.
Mobile phase A was 0.1% formic acid in Milli-Q water, and mobile phase B was acetonitrile containing 0.1% formic acid at a 0.3 mL/min flow rate. […] Metabolites were identified based on their retention time using authentic standards when possible. […] Urine concentration of excreted metabolites was normalized to the total volume excreted in each studied interval.
Plasma (30 µL), urine (5 µL) and fecal extracts (5 µL) were filtered through 0.45 µm
cellulose-acetate membrane filters and injected into an Agilent 1200 series LC system
ESI-Jet Stream Technology (Agilent Technologies). A reverse-phase Ascentis Express
C18 (15 cm x 3 mm, 2.7 µm) column (Sigma-Aldrich Quimica, Madrid), preceded by a
phase A was 0.1% formic acid in Milli-Q water, and mobile phase B was acetonitrile
containing 0.1% formic acid at a 0.3 mL/min flow rate. The gradient started with 10% B
at 0 min, 30% B at 10 min, 40% B at 15 min, reaching 50% B at 20 min. The starting
gradient was then re-established in 2 min and maintained for 8 min to re-equilibrate the

[2] = Plasma pharmacokinetics of phenolic metabolites after intake of the GCPE nutraceutical (LC-MS-QToF); conditions: for AUC(0-t): AUC0–24h; for Tmax: Tmax (h) or Range; for Cmax: mean ± SEM, n = 9
Experimental: Participants attended the Human Nutrition Unit (HNU) at the Institute of Food Science, Technology and Nutrition (ICTAN-CSIC) on two consecutive days at the beginning of the intervention (week 0) and also on two consecutive days at the end of the study, after consuming daily two doses of the GCPE nutraceutical, providing 600 mg/d phenols, during two months (week 8). On each occasion, on the first visit day (Figure 1), subjects arrived at the HNU after an overnight (12 h) fast and provided a urine sample. A licensed health care professional placed an intravenous catheter in the subjects′ nondominant arm and collected a fasting blood sample (baseline, 0 h). Then, subjects drank the soluble GCPE nutraceutical dissolved in 200 mL of water. Subsequently, blood samples were collected in EDTA-coated tubes at 0.5, 1, 1.5, 2, 3, 4, 6, 8, 10, and 11 h. On the sampling days, volunteers remained at the HNU, where a (poly)phenol-free diet was provided. Half an hour after consuming the nutraceutical, volunteers ate a breakfast consisting of ham, cheese, white bread, and a yogurt. Lunch (paella, bread, and yogurt) and an afternoon snack (muffin and yogurt) were eaten 5 and 9 h, respectively, after consuming the nutraceutical. Water and isotonic beverages were freely available. Volunteers were instructed to eat a (poly)phenol-free dinner that night and to attend the HNU on the next day after a 12 h fast. Then, a final blood sample was obtained from the antecubital vein 24 h after consuming the nutraceutical. The same protocol was followed during visits at the end of the 8-week intervention. On each occasion, two days before each visit to the HNU, subjects consumed a low (poly)phenol diet free of foods containing hydroxycinnamates such as coffee, herbal teas, red wine, artichokes, whole grain cereals, vegetables, fruits and fruit juices, and dried fruits. Only banana, watermelon, cantaloupes, and potatoes were allowed.
as §1
To extract plasma metabolites, 10 µL of 50% (v/v) aqueous formic acid, and 900 µL cold acetonitrile containing 50 µL of 10% (w/v) ascorbic acid were added to 400 µL defrosted plasma. Samples were vortexed and centrifuged (14,000 rpm, 10 min, 4 °C), repeating the extraction and combining the two supernatants, which were reduced to dryness under nitrogen [13]. Dried samples were resuspended in 150 µL of 0.1% aqueous formic acid (containing 10% acetonitrile acidified with 0.1% formic acid), centrifuged (15 min, 14,000 rpm, 4 °C), and the supernatant collected.
A reverse-phase Ascentis Express C18 (15 cm × 3 mm, 2.7 µm) column (Sigma-Aldrich Quimica, Madrid, Spain), preceded by a Supelco 55215-U guard column (3 mm × 5 mm, 2.7 µm), was used for separation. Mobile phase A was 0.1% formic acid in Milli-Q water, and mobile phase B was acetonitrile containing 0.1% formic acid at a 0.3 mL/min flow rate. […] Metabolites were identified based on their retention time using authentic standards when possible.

[3] = human, oral, 300 mg hydroxycinnamic acids, week 0
[4] = human, oral, 300 mg hydroxycinnamic acids, week 8
[5] = human, oral, 300 mg hydroxycinnamic acids, week 0, first peak where biphasic
[6] = human, oral, 300 mg hydroxycinnamic acids, week 8, first peak where biphasic
[7] = human, oral, 300 mg, Cmax, week 0, GCPE nutraceutical with 300 mg hydroxycinnamic acids
[8] = human, oral, 300 mg, Cmax, week 8, GCPE nutraceutical with 300 mg hydroxycinnamic acids

Row | Cumulative urinary excretion, Total 0–24 h ([1]; week 0) [µmol] | Cumulative urinary excretion, Total 0–24 h ([1]; week 8) [µmol] | Amount excreted in urine, 0- 3 h ([1]; week 0, interval 0–3 h) [µmol] | Amount excreted in urine, 3-6 h ([1]; week 0, interval 3–6 h) [µmol] | Amount excreted in urine, 6-9 h ([1]; week 0, interval 6–9 h) [µmol] | Amount excreted in urine, 9-11 h ([1]; week 0, interval 9–11 h) [µmol] | Amount excreted in urine, 11-24 h ([1]; week 0, interval 11–24 h) [µmol] | Amount excreted in urine, 0- 3 h ([1]; week 8, interval 0–3 h) [µmol] | Amount excreted in urine, 3-6 h ([1]; week 8, interval 3–6 h) [µmol] | Amount excreted in urine, 6-9 h ([1]; week 8, interval 6–9 h) [µmol] | Amount excreted in urine, 9-11 h ([1]; week 8, interval 9–11 h) [µmol] | Amount excreted in urine, 11-24 h ([1]; week 8, interval 11–24 h) [µmol] | SMILES | AUC(0-t) [2, 3] [µM·h] | AUC(0-t) [2, 4] [µM·h] | Tmax [2, 5] [h] | Tmax [2, 6] [h] | Cmax [2, 7] [nM] | Cmax [2, 8] [nM] | further results
1 | 0.7 ± 0.2 | 0.63 ± 0.08 | 0.08 ± 0.02 | 0.08 ± 0.01 | 0.2 ± 0.1 | 0.09 ± 0.02 | 0.27 ± 0.06 | 0.08 ± 0.01 | 0.06 ± 0.01 | 0.12 ± 0.03 | 0.12 ± 0.04 | 0.25 ± 0.05 | COc1ccc(CCC(=O)O)cc1OC [Dihydrodimethoxycinnamic acid, 3-(3′,4′-Dimethoxyphenyl)propanoic acid] | 1.2 ± 0.1 | 1.3 ± 0.1 | 4 ± 1 | 10 ± 4 | 110 ± 20 | 120 ± 10 | –
2 | 1.7 ± 0.2 | 2.1 ± 0.2 | 1 ± 0.2 | 0.35 ± 0.07 | 0.27 ± 0.07 | 0.04 ± 0.03 | 0.04 ± 0.02 | 1.2 ± 0.2 | 0.32 ± 0.04 | 0.39 ± 0.07 | 0.13 ± 0.07 | 0.09 ± 0.04 | COc1ccc(/C=C/C(=O)O)cc1O [iFA, 3′-Hydroxy-4′-methoxycinnamic acid] | 0.025 ± 0.007 | 0.043 ± 0.008 | 0.5 ± 0.1 | 0.5 | 23 ± 6 | 32 ± 7 | AUC(0-t) ([2]; human, oral, 300 mg phenols, week 0): 0.025 µM·h; AUC(0-t) ([2]; human, oral, 300 mg phenols, week 8): 0.043 µM·h
3 | 3.7 ± 0.4 | 3.2 ± 0.2 | 0.26 ± 0.04 | 0.25 ± 0.08 | 1.2 ± 0.3 | 0.8 ± 0.2 | 1.2 ± 0.09 | 0.32 ± 0.07 | 0.38 ± 0.08 | 1 ± 0.2 | 0.7 ± 0.2 | 1 ± 0.2 | COc1ccc(CCC(=O)O)cc1O [DHiFA, 3-(3′-Hydroxy-4′-methoxyphenyl) propanoic acid] | 0.5 ± 0.2 | 0.6 ± 0.2 | 7 ± 1 | 7 ± 1 | 70 ± 20 | 70 ± 20 | –
4 | 14 ± 2 | 14 ± 2 | 1.3 ± 0.3 | 0.7 ± 0.1 | 1 ± 0.3 | 0.8 ± 0.2 | 3.8 ± 0.9 | 1.5 ± 0.3 | 0.6 ± 0.1 | 1.2 ± 0.2 | 1.1 ± 0.3 | 2.8 ± 0.6 | O=C(O)CNC(=O)c1ccc(O)cc1 [4′-Hydroxyhippuric acid] | – | – | – | – | – | – | Amount excreted in urine, TOTAL ([1]; week 0, Table S5 total): 14 ± 2 µmol; Amount excreted in urine, TOTAL ([1]; week 8, Table S6 total): 14 ± 2 µmol; AUC0–24h ([2]; week 0): 1.2 ± 0.2 µM/min; Cmax ([2]; week 0, GCPE nutraceutical with 300 mg hydroxycinnamic acids): 80 ± 10 nM; Tmax (h) or Range ([2]; week 0, first peak where biphasic): 12 ± 3 h; AUC0–24h ([2]; week 8): 1.3 ± 0.2 µM/min; Cmax ([2]; week 8, GCPE nutraceutical with 300 mg hydroxycinnamic acids): 90 ± 10 nM; Tmax (h) or Range ([2]; week 8, first peak where biphasic): 8 ± 2 h
